Reference: article PMC11945486, “TAS1R2/TAS1R3 Single-Nucleotide Polymorphisms Affect Sweet Taste Receptor Activation by Sweeteners: The SWEET Project” (Nutrients, 2025)
Where two headings read alike, the source gives them in different places. No end group written: not given here.

T1: human TAS1R2-WT/TAS1R3-C757R (Homo sapiens, UniProt Q7RTX0+Q8TE23, C757R)
T1 construct: expressed in transfected cells; host or cells: HEK293T stably expressing Gα16gust44
T1 sequence (Q8TE23 20-839): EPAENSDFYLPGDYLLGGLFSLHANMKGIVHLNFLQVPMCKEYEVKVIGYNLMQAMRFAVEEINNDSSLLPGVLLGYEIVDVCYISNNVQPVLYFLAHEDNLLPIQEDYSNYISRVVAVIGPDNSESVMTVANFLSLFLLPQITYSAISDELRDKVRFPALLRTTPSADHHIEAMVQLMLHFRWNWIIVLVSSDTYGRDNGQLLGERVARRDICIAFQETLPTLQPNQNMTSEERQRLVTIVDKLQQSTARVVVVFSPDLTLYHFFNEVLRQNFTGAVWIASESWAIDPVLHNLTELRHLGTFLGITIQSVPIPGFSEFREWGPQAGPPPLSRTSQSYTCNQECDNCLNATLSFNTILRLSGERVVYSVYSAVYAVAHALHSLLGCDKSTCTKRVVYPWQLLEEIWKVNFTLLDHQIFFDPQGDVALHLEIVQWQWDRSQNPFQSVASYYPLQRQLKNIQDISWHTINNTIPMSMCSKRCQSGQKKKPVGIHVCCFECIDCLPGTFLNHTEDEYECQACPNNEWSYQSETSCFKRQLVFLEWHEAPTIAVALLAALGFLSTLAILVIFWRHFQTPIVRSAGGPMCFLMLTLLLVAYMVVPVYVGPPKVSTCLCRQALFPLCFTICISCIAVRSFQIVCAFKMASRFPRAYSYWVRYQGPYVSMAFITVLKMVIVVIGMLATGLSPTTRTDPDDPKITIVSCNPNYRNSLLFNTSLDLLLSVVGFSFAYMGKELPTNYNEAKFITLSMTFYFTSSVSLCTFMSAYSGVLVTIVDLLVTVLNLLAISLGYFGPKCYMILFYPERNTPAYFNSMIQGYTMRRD
T1 sequence (Q7RTX0 21-852 C757R): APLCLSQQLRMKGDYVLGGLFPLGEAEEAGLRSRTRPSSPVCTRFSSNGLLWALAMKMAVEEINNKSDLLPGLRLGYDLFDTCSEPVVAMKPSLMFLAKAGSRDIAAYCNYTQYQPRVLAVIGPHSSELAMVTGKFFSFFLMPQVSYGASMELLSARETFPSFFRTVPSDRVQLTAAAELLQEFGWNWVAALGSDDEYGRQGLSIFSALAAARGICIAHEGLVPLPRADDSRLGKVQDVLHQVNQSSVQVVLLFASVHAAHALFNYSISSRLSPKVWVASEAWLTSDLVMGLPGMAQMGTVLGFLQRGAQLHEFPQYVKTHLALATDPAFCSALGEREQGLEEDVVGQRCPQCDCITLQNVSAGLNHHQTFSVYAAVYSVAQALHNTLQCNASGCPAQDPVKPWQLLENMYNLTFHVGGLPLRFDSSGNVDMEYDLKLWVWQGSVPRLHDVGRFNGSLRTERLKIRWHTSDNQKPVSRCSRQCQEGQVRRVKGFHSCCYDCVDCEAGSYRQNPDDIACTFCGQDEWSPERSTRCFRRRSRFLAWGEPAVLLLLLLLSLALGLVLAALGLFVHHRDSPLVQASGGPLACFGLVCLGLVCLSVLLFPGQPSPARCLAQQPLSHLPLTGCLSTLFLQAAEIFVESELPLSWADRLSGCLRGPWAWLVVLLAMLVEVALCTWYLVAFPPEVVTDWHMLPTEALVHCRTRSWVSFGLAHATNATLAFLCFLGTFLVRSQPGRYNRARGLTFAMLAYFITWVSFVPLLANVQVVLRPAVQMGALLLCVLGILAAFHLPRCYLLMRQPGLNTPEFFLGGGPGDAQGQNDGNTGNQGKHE


Target: T1, human TAS1R2-WT/TAS1R3-C757R
Assay: Calcium mobilisation assay, TAS1R2-WT with TAS1R3 variant C757R
Assay type: cell-based
Details: for Max ΔF/F0: maximal signal amplitude
Text: The coding sequences for TAS1R2 and TAS1R3 were commercially synthesised, and the human codon was optimised for expression in human cells. The coding sequences of human TAS1R2 and TAS1R3 were subcloned and inserted into the mammalian expression vectors pcDNA6/myc-HisA and pcDNA4/myc-HisA (Invitrogen; Thermo Fisher Scientific; Illkirch, France) between the EcoRI and NotI restriction sites, generating the plasmids pcDNA6-TAS1R2 and pcDNA4-TAS1R3, respectively. To increase protein expression in mammalian cells, an upstream start codon was used, which was a sequence called MAX, corresponding to the QBI SP163 element also described in pcDNA4-HisMax (Invitrogen; Thermo Fisher Scientific; Illkirch, France). To measure the expression level of the receptor by immunohistochemistry, we used the FLAG sequence ([…]) in the C-terminal position, which encodes the FLAG tag epitope. SNP variants of TAS1R2 and TAS1R3 were constructed based on […], respectively, using site-directed mutagenesis (Genewiz; Leipzig, Germany).
The HEK293T cells were kindly provided by Jay P. Slack (Givaudan Flavors Corporation; Cincinnati, OH, USA). HEK293T cells stably transfected with Gα16gust44 [43, 67] were seeded in poly-D-lysine-coated clear-bottom black 96-well plates (0.35 × 10^5 cells/well) in high-glucose DMEM supplemented with 2 mM GlutaMAX, 10% dialysed foetal bovine serum with penicillin/streptomycin and G418 (400 μg/mL) at 37 °C and 6.3% CO2 in a humidified atmosphere as previously reported. […] As a negative control, HEK293T cells were mock-transfected with the empty expression vector. After a further 24 h of incubation, the HEK293T cells were washed with C1 buffer (130 mM NaCl, 5 mM KCl, 10 mM HEPES pH 7.4 and 2 mM CaCl2). The 96-well plates containing the cells were then stimulated with sweet-tasting compounds. […] Different concentration ranges were tested depending on the sweet compound injected. The Ca^2+ changes were expressed as fractional changes in fluorescent light intensity: ΔF/F = (F − F0)/F0, where F was the fluorescent light intensity at each point, and F0 was the value of emitted fluorescent light prior to stimulus application. To calculate dose–response relationships, the changes in fluorescence upon stimulus application were averaged, mock-subtracted and baseline-corrected. The dose–response data obtained were adjusted using a 4-parameter logistic equation. The half-maximal effective concentrations (EC50 values) and maximal signal amplitudes were calculated using SigmaPlot software (version 15.0) (Systat Software; San Jose, CA, USA).
For in vitro calcium mobilisation assay performed on hTAS1R2-SNPs, hTAS1R3-SNPs and mTAS1R3-I60T, 6 to 7 concentrations were tested for each sweet compound, plus buffer alone. All concentration–receptor combinations were measured in duplicate, and each experiment was repeated at least 4 times (8 wells/concentration). Results were expressed for each concentration as ΔF/F mean ± SEM and represented as dose–response curves.

| Molecule | R1 = Variant EC50/WT EC50 | Max ΔF/F0 | EC50 (read-out: EC50) [µM] | EC50 (brazzein) [µg/mL] |
| --- | --- | --- | --- | --- |
| CC1=CC(=O)NS(=O)(=O)O1 [Acesulfame K, acesulfame K] | 0.8 | 0.42 ± 0.01 | 468 ± 31 |  |
| O=S(=O)(O)NC1CCCCC1 [Cyclamate, cyclamate] |  |  | 1150 ± 54 |  |
| C[C@H](CC[C@@H](O[C@@H]1O[C@H](CO[C@@H]2O[C@H](CO)[C@@H](O)[C@H](O)[C@H]2O)[C@@H](O)[C@H](O)[C@H]1O[C@@H]1O[C@H](CO)[C@@H](O)[C@H](O)[C@H]1O)C(C)(C)O)[C@H]1CC[C@@]2(C)[C@@H]3CC=C4[C@@H](CC[C@H](O[C@@H]5O[C@H](CO[C@@H]6O[C@H](CO)[C@@H](O)[C@H](O)[C@H]6O)[C@@H](O)[C@H](O)[C@H]5O)C4(C)C)[C@]3(C)[C@H](O)C[C@]12C [Mogroside V, mogroside V] | 0.7 | 1.03 ± 0.02 | 21.7 ± 1 |  |
| COc1ccc(CCC(=O)c2c(O)cc(O[C@@H]3O[C@H](CO)[C@@H](O)[C@H](O)[C@H]3O[C@@H]3O[C@@H](C)[C@H](O)[C@@H](O)[C@H]3O)cc2O)cc1O [NHDC, neohesperidin dihydrochalcone] | 0.7 | 0.98 ± 0.01 | 36.5 ± 16 |  |
| COC(=O)[C@H](Cc1ccccc1)NC(=O)[C@H](CC(=O)O)NCCC(C)(C)C [Neotame] | 0.7 | 0.75 ± 0.03 | 0.88 ± 0.12 |  |
| C=C(C)[C@@H]1CC=C(/C=N/O)CC1 [Perillartine, perillartine] | 0.6 | 1.23 ± 0.13 | 8.1 ± 2.6 |  |
| C=C1C[C@@]23CC[C@H]4[C@@](C)(CCC[C@@]4(C)C(=O)O[C@@H]4O[C@H](CO)[C@@H](O)[C@H](O[C@@H]5O[C@H](CO)[C@@H](O)[C@H](O)[C@H]5O)[C@H]4O[C@@H]4O[C@H](CO)[C@@H](O)[C@H](O)[C@H]4O)[C@@H]2CC[C@]1(O[C@@H]1O[C@H](CO)[C@@H](O)[C@H](O[C@@H]2O[C@H](CO)[C@@H](O)[C@H](O)[C@H]2O)[C@H]1O[C@@H]1O[C@H](CO)[C@@H](O)[C@H](O)[C@H]1O)C3 [Rebaudioside M, rebaudioside M] | 0.6 | 1.13 ± 0.04 | 24.3 ± 2.2 |  |
| OC[C@H]1O[C@H](O[C@]2(CCl)O[C@H](CCl)[C@@H](O)[C@@H]2O)[C@H](O)[C@@H](O)[C@H]1Cl [Sucralose] | 1.0 | 0.84 ± 0.03 | 113 ± 10 |  |
| brazzein (QDKCKKVYENYPVSKCQLANQCNYDCKLDKHARSGECFYDEKRNLQCICDYCEY; ends and bridges not checked; cysteine pairing not given here; UniProt P56552 1-54, looked up) [sweet-tasting protein obtained by recombinant production using the yeast Pichia pastoris] | 0.7 | 0.86 ± 0.06 |  | 74.2 ± 1.9 |
| thaumatin | 0.6 | 0.69 ± 0.05 |  |  |
| thaumatin (protein, Eight disulfides, sweet-tasting plant protein, E957) ATFEIVNRCSYTVWAAASKGDAALDAGGRQLNSGESWTINVEPGTKGGKIWARTDCYFDDSGSGICKTGDCGGLLRCKRFGRPPTTLAEFSLNQYGKDYIDISNIKGFNVPMDFSPTTRGCRGVRCAADIVGQCPAKLKAPGGGCNDACTVFQTSEYCCTTGKCGPTEYSRFFKRLCPDAFSYVLDKPTTVTCPGSSNYRVTFCPTA |  |  | 6.7 ± 1.4 |  |
